“And” between values parts separate entries of the source, which are not always exact repeats. Equal entries are not always repeated. Inconclusive results and toxic doses are left out. Cut-off read from the data, not from the text of the source: active = T/C of 150% or more; inactive = T/C below 125%.
Tested on: L1210 leukemia ip in BDF1 mice, survival T/C
Experiment: NCI In Vivo Anticancer Drug Screen. Data for tumor model L1210 Leukemia (intraperitoneal) in B6D2F1 (BDF1) mice
Conditions: endpoint: mean survival time, higher = longer survival
Procedure, shortened: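 Tumor cells were implanted, animals were treated, and survival was followed. The result divides the treated measurement by the vehicle-control measurement.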

[1] = dose: 100.0 mg/kg/injection, schedule: Q01DX009 (ip), vehicle: Klucel (hydroxypropylcellulose) (HPC)
[2] = dose: 200.0 mg/kg/injection, schedule: Q01DX009 (ip), vehicle: Klucel (hydroxypropylcellulose) (HPC)
[3] = dose: 400.0 mg/kg/injection, schedule: Q01DX009 (ip), vehicle: Klucel (hydroxypropylcellulose) (HPC)
[4] = dose: 100.0 mg/kg/injection, schedule: Q04DX003 (ip), vehicle: saline with Tween-80
[5] = dose: 200.0 mg/kg/injection, schedule: Q04DX003 (ip), vehicle: saline with Tween-80
[6] = dose: 400.0 mg/kg/injection, schedule: Q04DX003 (ip), vehicle: saline with Tween-80
[7] = dose: 100.0 mg/kg/injection, schedule: Q01DX001 (ip), vehicle: saline
[8] = dose: 200.0 mg/kg/injection, schedule: Q01DX001 (ip), vehicle: saline
[9] = dose: 400.0 mg/kg/injection, schedule: Q01DX001 (ip), vehicle: saline
[10] = dose: 12.5 mg/kg/injection, schedule: Q01DX009 (ip), vehicle: saline with Tween-80
[11] = dose: 25.0 mg/kg/injection, schedule: Q04DX003 (ip), vehicle: saline with Tween-80
[12] = dose: 50.0 mg/kg/injection, schedule: Q01DX009 (ip), vehicle: saline with Tween-80
[13] = dose: 25.0 mg/kg/injection, schedule: Q01DX009 (ip), vehicle: saline
[14] = dose: 50.0 mg/kg/injection, schedule: Q01DX009 (ip), vehicle: saline
[15] = dose: 100.0 mg/kg/injection, schedule: Q01DX009 (ip), vehicle: saline

Measured: T/C

N#C/C(=C\C=C\C1CCCCC1)C1CCC([N+](=O)[O-])CC1 (stereo unspecified)
inactive: dose: 100.0 mg/kg/injection, schedule: Q04DX002 (ip), vehicle: saline with Tween-80 105 % of control | dose: 200.0 mg/kg/injection, schedule: Q04DX002 (ip), vehicle: saline with Tween-80 94 % of control | dose: 400.0 mg/kg/injection, schedule: Q04DX002 (ip), vehicle: saline with Tween-80 91 % of control

CC(=O)Nc1ccc(NC(=O)NC(C)(C)C)cc1
inactive: [1] 97 % of control | [2] 96 % of control | [3] 96 % of control

O=C1c2ccccc2-c2ccccc2C1(Cl)Cl
inactive: dose: 75.0 mg/kg/injection, schedule: Q01DX001 (ip), vehicle: saline 105 % of control

O=C(O)CSc1nc2ccccc2[nH]1
inactive: [4] 100 % of control | [5] 96 % of control | [6] 88 % of control

CCCCC(=O)N/N=C\c1ccc(OCc2ccccc2)cc1
inactive: [7] 87 % of control | [8] 92 % of control | [9] 87 % of control

CN(C)c1ccc(C(=O)C#N)cc1
inactive: [1] 100 % of control | [2] 108 % of control | [3] 100 % of control

Cc1ccc(C)c(NC(=O)Nc2ccccc2Cl)c1
inactive: dose: 100.0 mg/kg/injection, schedule: Q01DX009 (ip), vehicle: gum acacia 90 % of control | dose: 100.0 mg/kg/injection, schedule: Q04DX003 (ip), vehicle: gum acacia 93 % of control | dose: 200.0 mg/kg/injection, schedule: Q01DX009 (ip), vehicle: gum acacia 90 % of control | dose: 200.0 mg/kg/injection, schedule: Q04DX003 (ip), vehicle: gum acacia 91 % of control | dose: 400.0 mg/kg/injection, schedule: Q01DX009 (ip), vehicle: gum acacia 90 % of control | dose: 400.0 mg/kg/injection, schedule: Q04DX003 (ip), vehicle: gum acacia 94 % of control

CCN(CC)c1ccc(N=Cc2cc(=O)n(C)c3ccccc23)cc1
inactive: dose: 100.0 mg/kg/injection, schedule: Q01DX001 (ip), vehicle: carboxymethylcellulose (CMC) 101 % of control | dose: 200.0 mg/kg/injection, schedule: Q01DX001 (ip), vehicle: carboxymethylcellulose (CMC) 90 % of control | dose: 400.0 mg/kg/injection, schedule: Q01DX001 (ip), vehicle: carboxymethylcellulose (CMC) 88 % of control

O=C(c1ccccc1)C1C(c2ccccc2)OP(c2ccccc2)(c2ccccc2)(c2ccccc2)C1c1ccccc1 (stereo unspecified)
inactive: dose: 6.25 mg/kg/injection, schedule: Q04DX003 (ip), vehicle: saline with Tween-80 102 % of control | [10] 97 % of control | [11] 94 % of control

CC(=O)c1cccc([N+](=O)[O-])c1O
inactive: [7] 95 % of control | [8] 94 % of control | [9] 91 % of control

Cn1c2ccc(Cl)cc2c2nnc(NCCCO)nc21
inactive: dose: 100.0 mg/kg/injection, schedule: Q04DX002 (ip), vehicle: saline 97 % of control | dose: 200.0 mg/kg/injection, schedule: Q04DX002 (ip), vehicle: saline 89 % of control | dose: 400.0 mg/kg/injection, schedule: Q04DX002 (ip), vehicle: saline 93 % of control

Cc1cc(OCc2nc(N)nc(N)c2-c2ccc(Cl)c(Cl)c2)ccc1NC(=O)c1cc(S(=O)(=O)F)ccc1Cl
inactive: dose: 100.0 mg/kg/injection, schedule: Q01DX001 (ip), vehicle: saline with Tween-80 98 % of control | dose: 200.0 mg/kg/injection, schedule: Q01DX001 (ip), vehicle: saline with Tween-80 93 % of control | dose: 400.0 mg/kg/injection, schedule: Q01DX001 (ip), vehicle: saline with Tween-80 97 % of control

[Cu+2].[NH-]c1ccccc1C(=O)O.[NH-]c1ccccc1C(=O)O
inactive: [10] 101 % of control | dose: 12.5 mg/kg/injection, schedule: Q04DX003 (ip), vehicle: saline with Tween-80 97 % of control | dose: 25.0 mg/kg/injection, schedule: Q01DX009 (ip), vehicle: saline with Tween-80 101 % of control | [11] 97 % of control | [12] 88 % of control | dose: 50.0 mg/kg/injection, schedule: Q04DX003 (ip), vehicle: saline with Tween-80 90 % of control

C/C=C/CC(C/C=C/C)C1CC[N-]CC1.C/C=C/CC(C/C=C/C)C1CC[N-]CC1.[Cl][Pt+2]([Cl])([Cl])[Cl]
inactive: dose: 3.13 mg/kg/injection, schedule: Q01DX009 (ip), vehicle: other 94 % of control | dose: 6.25 mg/kg/injection, schedule: Q01DX009 (ip), vehicle: other 87 % of control | dose: 12.5 mg/kg/injection, schedule: Q01DX009 (ip), vehicle: other 105 % of control

COc1ccc(C)cc1NC(=O)OCCOc1ccc([N+](=O)[O-])cc1
inactive: [12] 93 % of control | dose: 100.0 mg/kg/injection, schedule: Q01DX009 (ip), vehicle: saline with Tween-80 97 % of control | dose: 200.0 mg/kg/injection, schedule: Q01DX009 (ip), vehicle: saline with Tween-80 93 % of control

CSc1nc(NN(C)C)c2[nH]c(C)nc2n1
inactive: [7] 92 % of control | [8] 97 % of control

COc1cccc(C=Nc2ccc(I)cc2)c1O.COc1cccc(C=Nc2ccc(I)cc2)c1O.[Co]
inactive: dose: 100.0 mg/kg/injection, schedule: Q04DX003 (ip), vehicle: saline 94 % of control | dose: 200.0 mg/kg/injection, schedule: Q04DX003 (ip), vehicle: saline 94 % of control | dose: 400.0 mg/kg/injection, schedule: Q04DX003 (ip), vehicle: saline 109 % of control

Cc1ccc(NC(=S)/C(=C(\[O-])c2ccc([N+](=O)[O-])cc2)[n+]2ccc(C(C)C)cc2)c(C)c1
inactive: [1] 101 % of control | [2] 98 % of control | [3] 101 % of control

CCCCCC(=O)N1CCCCC1
inactive: dose: 25.0 mg/kg/injection, schedule: Q01DX009 (ip), vehicle: Klucel (hydroxypropylcellulose) (HPC) 93 % of control | dose: 50.0 mg/kg/injection, schedule: Q01DX009 (ip), vehicle: Klucel (hydroxypropylcellulose) (HPC) 96 % of control | [1] 94 % of control

CCN(C1CCCCC1)C1CCCCC1
inactive: [13] 100 % of control | [14] 98 % of control | [15] 107 % of control

COc1cccc(/C(C)=N\Nc2ccc([N+](=O)[O-])cc2[N+](=O)[O-])c1OC
inactive: [14] 92 % of control | [15] 90 % of control | [4] 94 % of control and 96 % of control | [5] 87 % of control | [6] 86 % of control and 92 % of control

CC(=O)N1c2ccccc2C(=O)OC1c1ccc2c(c1)CCC2 (stereo unspecified)
inactive: dose: 100.0 mg/kg/injection, schedule: Q04DX003 (ip), vehicle: Klucel (hydroxypropylcellulose) (HPC) 94 % of control | dose: 200.0 mg/kg/injection, schedule: Q04DX003 (ip), vehicle: Klucel (hydroxypropylcellulose) (HPC) 89 % of control | dose: 400.0 mg/kg/injection, schedule: Q04DX003 (ip), vehicle: Klucel (hydroxypropylcellulose) (HPC) 102 % of control

CC(C)(C)C(=O)C=C(C(F)(F)F)C(F)(F)F
inactive: dose: 6.25 mg/kg/injection, schedule: Q01DX009 (ip), vehicle: saline 106 % of control | dose: 6.25 mg/kg/injection, schedule: Q04DX003 (ip), vehicle: saline 100 % of control | dose: 12.5 mg/kg/injection, schedule: Q01DX009 (ip), vehicle: saline 106 % of control | dose: 12.5 mg/kg/injection, schedule: Q04DX003 (ip), vehicle: saline 97 % of control | [13] 108 % of control | dose: 25.0 mg/kg/injection, schedule: Q04DX003 (ip), vehicle: saline 105 % of control | dose: 50.0 mg/kg/injection, schedule: Q04DX003 (ip), vehicle: saline 96 % of control and 105 % of control

NC/C=N/N=C(N)N
inactive: dose: 15.0 mg/kg/injection, schedule: Q01DX Z (ip), vehicle: saline 97 % of control | dose: 30.0 mg/kg/injection, schedule: Q01DX Z (ip), vehicle: saline 96 % of control | dose: 60.0 mg/kg/injection, schedule: Q01DX Z (ip), vehicle: saline 94 % of control | dose: 120.0 mg/kg/injection, schedule: Q01DX Z (ip), vehicle: saline 87 % of control | dose: 120.0 mg/kg/injection, schedule: Q01DX Z (oral), vehicle: saline 101 % of control | dose: 240.0 mg/kg/injection, schedule: Q01DX Z (oral), vehicle: saline 101 % of control | dose: 480.0 mg/kg/injection, schedule: Q01DX Z (oral), vehicle: saline 103 % of control | dose: 960.0 mg/kg/injection, schedule: Q01DX Z (oral), vehicle: saline 98 % of control

Reference: PubChem BioAssay AID248 (DTP/NCI, 2004)
